Earlier results in patent US20130031645A1, “METHOD FOR HEPATIC DIFFERENTIATION OF DEFINITIVE ENDODERM CELLS” (priority 2009, published 2013).

What was measured:
[1] = test system: retinoic acid receptors (RARs)

binding to the RXR receptors (RXR receptors): does not bind
affinity for the three RAR subtypes [1]: approximately equal affinity
Structure (SMILES): CC1=C(/C=C/C(C)=C/C=C/C(C)=C/C(=O)O)C(C)(C)CCC1 [ATRA, All-trans retinoic acid]
